{"source": "patent US10286000B2", "about": "“Retinoid X receptor-gamma agonists and retinoid X receptor-alpha antagonists for treatment of cancer” (St. Jude Children's Research Hospital, Inc., priority 2013, dated 2019)", "key": {"[1]": {"system": "HCT116 xenograft", "assay": "HCT116 xenograft model in NSG mice (bioluminescence imaging)", "format": "in vivo", "method": "(A) 1×10^6 luciferase-expressing HCT116 cells, alone or with 2×10^7 NKL cells, were subcutaneously injected into 8- to 10-week-old NSG mice (n=4). […] HCT116 xenograft growth was analyzed by performing bioluminescence imaging on day 15. (B) 1×10^6 HCT116 cells were subcutaneously injected into 8- to 10-week-old NSG mice. […] Tumor sections were prepared for ULBP2 immunohistochemical staining on day 15. (C) NKG2D expression on the cell surface of YT-INDY and YT-INDY-NKG2D cells was analyzed by flow cytometry. […] (D) 1×10^6 luciferase-expressing HCT116 cells were subcutaneously injected into 8- to 10-week-old NSG mice with either 1×10^6 YT-INDY or YT-INDY-NKG2D cells (n=8 per group). […] HCT116 xenograft growth was analyzed by performing bioluminescence imaging on day 15. (E) MICA-B and ULBP1-3 expressions on the cell surface of HCT116 or HCT116-ΔNKG2DLs cells were analyzed by flow cytometry. […] (F) 1×10^6 luciferase-expressing HCT116 or HCT116-ΔNKG2DLs cells were subcutaneously injected into 8- to 10-week-old NSG mice with 1×10^6 YT-INDY-NKG2D cells (n=8 per group). […] HCT116 xenograft growth was analyzed by performing bioluminescence imaging on day 10. […] 1×10^6 each of luciferase-expressing HCT116 cells and YT-INDY-NKG2D were injected subcutaneously into the mice on day 0. HCT116 xenograft growth was analyzed by performing bioluminescence imaging on day 3. * P<0.05, ** P<0.01, *** P<0.005, **** P<0.0005.\nLuciferase-expressing HCT116 and HT29 cells were generated by lentiviral transduction of the cells with a CMV promoter-driven luciferase expression construct engineered from the pLL3.7 vector. […] Bioluminescence imaging was performed in a Xenogen imaging system to monitor tumor growth and the data were analyzed using Living Image software (Caliper LifeSciences). For the lung metastasis model using HT29 cells, lungs were harvested for bioluminescence imaging and then fixed in 10% neutral buffered formalin, paraffin embedded, sectioned, and stained with hematoxylin and eosin. A total of six lung sections at 100-μm intervals were collected for the observation of pulmonary nodules. For the hepatic metastasis model, 0.5×10^6 of luciferase-expressing HCT116 cells were intrasplenically implanted into 6-8 week-old NSG mice."}, "[2]": {"system": "Chk1 (Ser-317 phosphorylation)", "assay": "Phospho-Chk1 ELISA", "format": "cell-based, human", "conditions": "HCT116, 0 h to 24 h", "method": "Ser-317 phosphorylation of Chk1 was determined by using the PathScan phosphor-Chk1 (Ser317) Sandwich ELISA kit (Cell Signaling). Data were normalized to the total Chk1 levels obtained from an ELISA with anti-Chk1 (total) used as the detection antibody."}, "[3]": {"system": "normal human lymphocytes", "assay": "normal human lymphocytes: viability and NKG2DL expression", "format": "cell-based"}, "[4]": {"system": "ULBP2 surface expression in 293T cells", "assay": "high-throughput screening of 5600 bioactive compounds, ULBP2 surface expression", "format": "cell-based, human"}, "[5]": {"system": "NKG2DL mRNA in colon cancer cell lines", "assay": "qRT-PCR of NKG2DL mRNA", "format": "cell-based, human", "conditions": "relative to DMSO", "method": "For qRT-PCR, total RNA was extracted from untreated or drug-treated tumor cells by using the RNA Clean & Concentrator (Zymo Research). All cDNA was generated by using the SuperScript VILO cDNA Synthesis kit (Life Technologies) and diluted 10-fold for analysis using the 7900HT Fast Real-time PCR System (Applied Biosystems). The data were calculated as the CT of target genes normalized to the CT of GAPDH of each sample. […] Differentially expressed transcripts were analyzed by ANOVA on Spotfire program."}, "[6]": {"system": "colon cancer cell lines (NKL or primary NK cells as effectors)", "assay": "NK cell cytotoxicity assay (BATDA release)", "format": "cell-based, human", "method": "(A) NKL cells express high level of NKG2D but not NKp30 on their cell surface as determined by flow cytometry. Results are representative of two independent experiments. Therefore, the use of anti-NKp30 in NKL killing assay described in 2 F below was considered as a non-specific IgG blockade relative to anti-NKG2D. […] (D) HCT116 cells transduced with control or a ULBP2-overexpressing lentiviral construct were analyzed by flow cytometry for the surface expression of ULBP2. Results are representative of two independent experiments. (E) NK cell cytotoxicity on the ULBP2-transduced HCT116 cells was determined by a BATDA release assay using NKL cells as effector cells (n=3). (F) DMSO- or SPIR-treated (3 days) HCT116 cells were subjected to a BATDA release assay using NKL cells in the presence or absence of anti-NKp30 or anti-NKG2D antibodies (10 μg/mL) (n=3). (G) DMSO- or SPIR-treated (3 days) HCT116 cells were subjected to a BATDA release assay using IL-2 (10 U/ml)-primed primary NK cells isolated from healthy donors at various E:T ratios in the presence or absence of anti-NKp30 or anti-NKG2D antibodies (10 μg/mL) (n=3). * P<0.05, ** P<0.005, *** P<0.0001.\nThe results were calculated as follows: […]"}}, "data": [{"smiles": "CC(=O)S[C@@H]1CC2=CC(=O)CC[C@]2(C)[C@H]2CC[C@@]3(C)[C@@H](CC[C@@]34CCC(=O)O4)[C@H]12", "note": "[SPIR, spironolactone]", "values": [{"measurement": "tumor growth in the presence of YT-INDY-NKG2D", "setting": "[1]; 1.25 mg/mouse i.p.", "result": "strongly suppressed the tumor growth"}, {"measurement": "tumor growth, mice bearing NKL cells", "setting": "[1]; HCT116 plus NKL cells, 1.25 mg/mouse i.p. twice a week for 2 weeks", "result": "suppressed tumor growth considerably"}, {"measurement": "tumor growth, SPIR alone", "setting": "[1]; HCT116 without NKL cells, 1.25 mg/mouse i.p. twice a week for 2 weeks", "result": "did not affect tumor growth"}, {"measurement": "HCT116 xenograft growth in YT-INDY-bearing mice", "setting": "[1]; NKG2D-negative NK cell line", "result": "did not reduce the HCT116 xenograft growth"}, {"measurement": "tumor susceptibility to NK cell killing triggered by SPIR, HCT116-ΔNKG2DLs", "setting": "[1]; NKG2DL-deficient HCT116 vs HCT116, YT-INDY-NKG2D", "result": "significantly reduced tumor susceptibility to NK cell killing"}, {"measurement": "ULBP2 expression in the HCT116 xenografts", "setting": "[1]; immunohistochemical staining day 15", "result": "significantly enhanced ULBP2 expression"}, {"measurement": "tumor development after pretreatment", "setting": "[1]; pretreating twice a week for 2 weeks before HCT116 and YT-INDY-NKG2D implantation", "result": "greatly inhibited tumor development"}, {"measurement": "Ser-317 phosphorylation of Chk1 (P-Chk1)", "setting": "[2]", "result": "time-dependent increase"}, {"measurement": "viability or NKG2DL expression of normal human lymphocytes", "setting": "[3]", "result": "no detrimental effect"}, {"measurement": "surface expression of ULBP2", "setting": "[4]", "result": "significantly increased"}, {"measurement": "NKG2DL mRNA levels", "setting": "[5]", "result": "increase in mRNA levels"}, {"measurement": "susceptibility to primary NK cell-mediated lysis", "setting": "[6]; HT29 and SW480 cells, IL-2-primed primary NK cells", "result": "markedly enhanced"}, {"measurement": "susceptibility to NKL lysis", "setting": "[6]; all colon cancer cell lines, SPIR 56 μM", "result": "significantly increased"}]}]}
